What was measured:
[1] = tested on: HAP1 MTAP-deleted cell line; experiment: Viability assay, HAP1 MTAP-deleted cell line; assay type: cell-based; details: Homo sapiens; viability assay, HAP1 MTAP-deleted cell line; read-out: Hap1 MTAP deleted viability IC50
[2] = tested on: SDMA in HAP1 MTAP-intact cell line (PRMT5 inhibition); experiment: SDMA in-cell western assay, HAP1 MTAP-intact cell line; details: Homo sapiens, HAP1, read-out: Hap1 MTAP intact IC50
[3] = tested on: SDMA in HAP1 MTAP-deleted (MTAP-null) cell line (PRMT5 inhibition); experiment: SDMA in-cell western assay, HAP1 MTAP-deleted cell line; details: for IC50 / IC90: Homo sapiens; for IC50: HAP1, read-out: Hap1 MTAP deleted IC50; for IC90: HAP1, read-out: Hap1 MTAP deleted IC90; for Hap1 MTAP intact/deleted ratio: ratio of SDMA IC50 in HAP1 MTAP-intact to HAP1 MTAP-deleted cell line

| IC50 [2] [nM] | IC50 [3] [nM] | IC90 [3] [nM] | Compound | IC50 [1] [nM] | Hap1 MTAP intact/deleted ratio [3] |
| --- | --- | --- | --- | --- | --- |
| > 50 | < 5 | < 75 | Nc1ncc(NC(=O)C(=O)N(Cc2ccccn2)Cc2ccccn2)c2[nH]ncc12 [Compound 89, N-(4-amino-1H-pyrazolo[4,3-c]pyridin-7-yl)-N′,N′-bis(2-pyridylmethyl)oxamide] | < 100 | A (IC50 ratio greater than or equal to 30 fold) |
| > 50 | < 5 | < 75 | CCN(Cc1ccc(C(F)(F)C(F)(F)F)cc1F)C(=O)C(=O)Nc1cnc(N)c2cn[nH]c12 [Compound 189, N-(4-Amino-1H-pyrazolo[4,3-c]pyridin-7-yl)-N′-ethyl-N′-[[2-fluoro-4-(1,1,2,2,2-pentafluoroethyl)phenyl]methyl]oxamide] | < 100 | B (IC50 ratio greater than or equal to 15 fold but lower than 30 fold) |
| 5 to 50 | < 5 | < 75 | Cc1cc(F)cnc1CN(Cc1ccc(F)cn1)C(=O)C(=O)Nc1cnc(N)c2cn[nH]c12 [Compound 88, N-(4-amino-1H-pyrazolo[4,3-c]pyridin-7-yl)-N′-[(5-fluoro-3-methyl-2-pyridyl)methyl]-N′-[(5-fluoro-2-pyridyl)methyl]oxamide] | < 100 | B (IC50 ratio greater than or equal to 15 fold but lower than 30 fold) |
| > 50 | < 5 | < 75 | Nc1ncc(NC(=O)C(=O)N(Cc2ccccc2)Cn2cccn2)c2[nH]ncc12 [Compound 181, N-(4-amino-1H-pyrazolo[4,3-c]pyridin-7-yl)-N′-benzyl-N′-(pyrazol-1-ylmethyl)oxamide] | 100 to 1000 | A (IC50 ratio greater than or equal to 30 fold) |

From US20250136594A1 (Tango Therapeutics, Inc., priority 2022, published 2025)
